5 compounds from the NIST ThermoML archive (doi:10.1016/j.fluid.2007.05.013) can be followed below.

Numbers after ± are expanded uncertainties.

For the data set the following is noted: Liquid; for mass density: 298.15 K, 101.33 kPa.

`C1COCCO1` [1,4-dioxane]: the mass density is given as 1027.9 ± 0.7 kg/m3. Further, the “vapor or sublimation pressure” value (374.47 K) was determined as 101.33 ± 2 kPa.
For `CCCCCCCl` [1-chlorohexane], the mass density was found to be 873.5 ± 1 kg/m3. Where the note is “408.07 K”, the “vapor or sublimation pressure” value is reported as 101.33 ± 2 kPa.
For `C1CCOC1` [tetrahydrofuran], the mass density is recorded as 882 ± 0.5 kg/m3. In addition, the “vapor or sublimation pressure” value (339.12 K) is 101.33 ± 2 kPa.
Regarding `C1COCO1` [1,3-dioxolane], the mass density is 1059 ± 0.9 kg/m3. The “vapor or sublimation pressure” value (348.8 K) is 101.33 ± 2 kPa.
In the case of `C1CCOCC1` [tetrahydropyran], the mass density was determined as 878.8 ± 1 kg/m3. The “vapor or sublimation pressure” value (361.23 K) is on record as 101.33 ± 2 kPa.
